Where two headings read alike, the source gives them in different places. One block for each compound: values may come before it.
How the values were obtained:
[1] = test system: TNF-α production from mouse intraperitoneal macrophages; experiment: IC50 for TNF-α production from mouse macrophages, LPS + IFN-γ, nucleic acid derivatives (Experiment 19); assay type: cell-based; settings: for IC50 / IC50 Concentration TNF-α: mouse macrophages, LPS and IFN-γ, 20 hours; for IC50: read-out: IC50 Concentration TNF-α; for inhibitory action on the production of inflammatory cytokines (in words): mouse intraperitoneal macrophages stimulated with LPS and IFN-γ
From the text: (§1) After completion of the culture, the supernatant in each well was collected and assayed for cytokines and prostaglandin E2 (called “PGE2”, hereinafter) with ELISA.

[2] = test system: IL-6 production from mouse intraperitoneal macrophages; experiment: IC50 for IL-6 production from mouse macrophages, LPS + IFN-γ (Experiment 19); assay type: cell-based; settings: for IC50 Concentration IL-6 / IC50: mouse macrophages, LPS and IFN-γ, 20 hours; for IC50: read-out: IC50 Concentration IL-6; for inhibition of the production of IL-6 (in words): mouse intraperitoneal macrophages stimulated with LPS and IFN-γ
From the text: as §1

[3] = test system: IL-12 production from mouse intraperitoneal macrophages; experiment: IC50 for IL-12 production from mouse macrophages, LPS + IFN-γ (Experiment 19); assay type: cell-based; settings: mouse macrophages, LPS and IFN-γ, 20 hours; read-out: IC50 Concentration IL-12
From the text: as §1

[4] = test system: PGE2 production from mouse intraperitoneal macrophages; experiment: IC50 for PGE2 production from mouse macrophages, LPS + IFN-γ (Experiment 19); assay type: cell-based; settings: mouse macrophages, LPS and IFN-γ, 20 hours; read-out: IC50 Concentration PGE2
From the text: as §1

BALB/c mice [5] = experiment: Acute toxicity test, intraperitoneal (Experiment 20); settings: BALB/c mice, intraperitoneal
Description: As a control, only PBS was intraperitoneally administered to 10 BALB/c mice (6-week-old, female, average weight of 20 g, commercialized by Charles River Laboratories Japan Inc., Tokyo, Japan) at a dose of 1 mL/head, followed by observing the course of the mice for 24 hours.

BALB/c mice [6] = experiment: Safeness of injection preparations, i.v. once a day for seven days (Example 2); assay type: in vivo; settings: BALB/c mice
Description: The safeness of the preparations prepared in the above was evaluated.

SMILES: Nc1nc2c([nH]c(=O)n2[C@H]2C[C@H](O)[C@@H](CO)O2)c(=O)[nH]1 [8-OH-deoxyguanine]
IC50 [1]: > 200 µM | IC50 Concentration IL-6 [2]: Enhanced

SMILES: Nc1nc2c(nc(O)n2[C@@H]2O[C@H](CO)[C@@H](O)[C@H]2O)c(=O)[nH]1 [8-OH-guanosine]
IC50 [1]: > 200 µM | IC50 Concentration IL-6 [2]: Enhanced

SMILES: CC1(C)[C@@H](O)CC[C@]2(C)[C@H]3C(=O)C=C4[C@@H]5C[C@@](C)(C(=O)O)CC[C@]5(C)CC[C@@]4(C)[C@]3(C)CC[C@@H]12 [18β-glycyrrhetinate]
IC50 [1]: 50.2 µM | IC50 [2]: 87.3 µM | IC50 [3]: > 200 µM | IC50 [4]: > 200 µM

SMILES: CNC(=O)[C@H]1O[C@@H](n2cnc3c(NCc4cccc(I)c4)ncnc32)[C@H](O)[C@@H]1O [IB-MECA, 1-deoxy-1-[6-[[(3-iodophenyl-)methyl]amino]-9H-purin-9-yl]-N-methyl-β-D-ribofuranuronamide]
IC50 [1]: 0.4 µM | inhibition of the production of IL-6 (in words) [2]: no inhibition | IC50 Concentration IL-6 [2]: Not inhibited | IC50 [3]: 4.5 µM

SMILES: Nc1c2[nH]cnc2nc[n+]1[O-] [adenine N1-oxide]
IC50 ([1]; Macrophage): 137 µM | inhibitory action on the production of inflammatory cytokines (in words) [1]: only a weak inhibitory action | IC50 ([2]; Macrophage): > 200 µM

SMILES: Nc1c2ncn([C@@H]3O[C@H](COP(=O)(O)O)[C@@H](O)[C@H]3O)c2nc[n+]1[O-] [adenosine N1-oxide 5′-monophosphate]
IC50 [1]: 0.9 µM | inhibition of the production of IL-6 (in words) [2]: strongly inhibited | IC50 [2]: 10.2 µM | IC50 [3]: > 200 µM | clinical laboratory test results that provide indices of renal and liver functions, versus control (BALB/c mice [5]; blood and urine at 24 hours): no difference | change in appearance after administration (BALB/c mice [5]; observed 24 hours): no change in appearance | change in body weight and other appearance versus PBS (BALB/c mice [6]; i.v. 0.3 mL/head once a day for seven days, followed two weeks): no significant change | clinical laboratory test results that provide indices of renal and liver functions versus PBS (BALB/c mice [6]; i.v. once a day for seven days, two weeks after initiating): no difference

SMILES: Nc1nc2nc[nH]c2c(=O)[nH]1 [guanine]
IC50 Concentration TNF-α [1]: Not inhibited | IC50 Concentration IL-6 [2]: Not inhibited

Further lines, with some results ahead:

IC50 ([1]; Macrophage): 85.2 µM | IC50 ([2]; Macrophage): > 200 µM
SMILES: Nc1ncnc2nc[nH]c12 [adenine]
inhibitory action on the production of inflammatory cytokines (in words) [1]: only a weak inhibitory action

IC50 ([1]; Macrophage): 32.1 µM | IC50 Concentration IL-6 [2]: Not inhibited
SMILES: Nc1ncnc2c1ncn2[C@@H]1O[C@H](COP(=O)(O)O)[C@@H](O)[C@H]1O [adenosine 5′-monophosphate]
inhibitory action on the production of inflammatory cytokines (in words) [1]: only a weak inhibitory action

IC50 [1]: > 200 µM | IC50 [2]: > 200 µM | IC50 [3]: > 200 µM | IC50 [4]: > 200 µM
SMILES: CC1(C)[C@@H](O[C@H]2O[C@H](C(=O)O)[C@@H](O)[C@H](O)[C@H]2O[C@@H]2O[C@H](C(=O)O)[C@@H](O)[C@H](O)[C@H]2O)CC[C@]2(C)[C@H]3C(=O)C=C4[C@@H]5C[C@@](C)(C(=O)O)CC[C@]5(C)CC[C@@]4(C)[C@]3(C)CC[C@@H]12 [dipotassium glycyrrhizinate]

IC50 Concentration TNF-α [1]: Not inhibited | IC50 Concentration IL-6 [2]: Not inhibited
SMILES: Nc1nc2c(ncn2[C@@H]2O[C@H](COP(=O)(O)O)[C@@H](O)[C@H]2O)c(=O)[nH]1 [guanosine 5′-monophosphate]

IC50 Concentration TNF-α [1]: Not inhibited | IC50 Concentration IL-6 [2]: Not inhibited
SMILES: Nc1nc2c(ncn2[C@@H]2O[C@H](CO)[C@@H](O)[C@H]2O)c(=O)[nH]1 [guanosine]

From US9757408B2 (Hayashibara Co., Ltd., priority 2010, dated 2017)
